Assay results from US11505558B1, “Antiviral heterocyclic compounds” (Enanta Pharmaceuticals, Inc., priority 2019, dated 2022).

test system: genotype A, "Long" strain RSV; assay: RSV-A assay (CPE, ATPlite readout in Hep-2 cells); type: cell-based; conditions: human respiratory syncytial virus, HEp-2, Hep-2 cells, genotype A "Long" strain RSV, MOI 0.1; read-out: Human RSV-A (“Long” strain) EC50
Description: Hep-2 cells, (originally derived from tumors grown in irradiated-cortisonised weanling rats that had been injected with epidermoid carcinoma tissue from a person's larynx, but later found to be indistinguishable from HeLa cells by PCR DNA analysis), were used for the culturing of genotype A, “Long” strain RSV. Flasks were inoculated with RSV and viral stocks were collected once cytopathic effect (CPE) was greater than […]. Viral stocks in […] sucrose media were snap frozen using liquid nitrogen to increase viral stability. Viral stock titers were quantified by tissue culture infectious dose 50% (TCID50) using 8,000 cells per well and 3-fold viral dilutions across a 96-well plate, cultured for 4 days. Viral stock titers were also quantified by a plaque forming unit assay, as described elsewhere.
Following extensive parameter testing, the final assay is run as follows: Hep-2 cells are seeded into the inner 60 wells of a 96-well plate at 8,000 cells per well in a volume of 50 μL using Growth Media (DMEM without phenol red, 1% L-Glut, 1% Penn/Strep, 1% nonessential amino acids, 10% heat-inactivated FBS). 2-fold serial dilutions of control and test compounds are added to the wells in duplicate in a total volume of 25 μL. Viral stock is then added to the wells at a multiplicity of infection (MOI) of 0.1 in a volume of 25 μL, bringing the total volume of each well to 100 μL. The MOI is calculated using the PFU/mL, or TCID50 if unavailable. Each 96-well plate has a control column of 6 wells with cells and virus but no compound (negative control, max CPE), a column with cells but no compound or virus (positive control, minimum CPE), and a column with no cells or virus or compound (background plate/reagent control). The control wells with cells but no virus are given an additional 25 μL of growth media containing an equal quantity of sucrose as those wells receiving the viral stock in order to keep consistent in media and volume conditions. The outer wells of the plate are filled with 125 μL of moat media (DMEM, 1% Penn/Strep) to act as a thermal and evaporative moat around the test wells. Following a 5-day incubation period, the plates are read using ATPlite (50 uL added per well), which quantifies the amount of ATP (a measure of cell health) present in each well. Assay plates are read using the Envision luminometer. […] EC50 ranges are as follows: A<0.2 μM; B>0.2 μM.

Row | EC50 [nM] | SMILES
1 | > 200 | C[C@]1(C(N)=O)COc2c1cc([C@@](O)(CNC(=O)c1ccc(-c3ncccn3)c(OC3CC3)c1)C(F)(F)F)nc2-c1ccc(F)cc1 [Example 163]
2 | > 200 | C[C@]1(C(N)=O)COc2c1cc([C@@](O)(CNC(=O)c1cc3ccccc3[nH]1)C(F)(F)F)nc2-c1ccc(F)cc1 [Example 599]
3 | > 200 | C[C@]1(C(N)=O)COc2c1cc([C@@](O)(CNC(=O)c1ccc(OC3CC3)c(-c3ccnc(C(F)(F)F)c3)c1)C(F)(F)F)nc2-c1ccc(F)cc1 [Example 105]
4 | < 200 | C[C@]1(C(N)=O)COc2c1cc([C@@](O)(CNC(=O)c1ccc(OC3CC3)c(-c3cscn3)c1)C(F)(F)F)nc2-c1ccc(F)cc1 [Example 128]
5 | > 200 | C[C@]1(C(N)=O)COc2c1cc([C@@](O)(CNC(=O)c1cn3ncccc3n1)C(F)(F)F)nc2-c1ccc(F)cc1 [Example 307]
6 | > 200 | C[C@]1(C(N)=O)COc2c1cc([C@@](O)(CNC(=O)c1cc3cccnc3cc1Cl)C(F)(F)F)nc2-c1ccc(F)cc1 [Example 241]
7 | > 200 | Cc1cncc(-c2ccc(C(=O)NC[C@](O)(c3cc4c(c(-c5ccc(F)cc5)n3)OC[C@]4(C)C(N)=O)C(F)(F)F)cc2OC2CC2)c1 [Example 142]
8 | > 200 | C[C@]1(C(N)=O)COc2c1cc([C@@](O)(CNC(=O)c1ccc(OC3CC3)c(-c3cnc(C(F)(F)F)nc3)c1)C(F)(F)F)nc2-c1ccc(F)cc1 [Example 111]
9 | > 200 | COc1cc(Nc2cc(C(=O)NC[C@](O)(c3cc4c(c(-c5ccc(F)cc5)n3)OC[C@]4(C)C(N)=O)C(F)(F)F)cc3cccnc23)nc(OC)n1 [Example 345]
10 | < 200 | C[C@]1(C(N)=O)COc2c1cc([C@@](O)(CNC(=O)c1ccc3nc(N)sc3c1)C(F)(F)F)nc2-c1ccc(F)c(Cl)c1 [Example 432]
11 | > 200 | COc1cc(C(=O)NC[C@](O)(c2cc3c(c(-c4ccc(F)cc4)n2)OC[C@]3(C)C(N)=O)C(F)(F)F)ccc1OCCN1CCCCC1 [Example 189]
12 | > 200 | C[C@]1(C(N)=O)COc2c1cc([C@@](O)(CNC(=O)c1ccc(C#N)c(F)c1)C(F)(F)F)nc2-c1ccc(F)cc1 [Example 320]
13 | < 200 | C[C@]1(C(N)=O)COc2c1cc([C@@](O)(CNC(=O)c1cc3c(F)cc(Cl)cc3[nH]1)C(F)(F)F)nc2-c1ccc(F)cc1 [Example 597]
14 | < 200 | COc1cc(C(=O)NC[C@](O)(c2cc3c(c(-c4ccc(F)cc4)n2)OC[C@]3(C)C(N)=O)C(F)(F)F)ccc1-c1cnoc1 [Example 184]
15 | < 200 | C[C@]1(C(N)=O)COc2c1cc([C@@](O)(CNC(=O)c1cc(OCC(N)=O)c3ncccc3c1)C(F)(F)F)nc2-c1ccc(F)c(Cl)c1 [Example 382]
16 | > 200 | C[C@]1(C(=O)NC(=N)N)COc2c1cc([C@@](O)(CNC(=O)c1cc(OC3CC3)c3ncccc3c1)C(F)(F)F)nc2-c1ccc(F)cc1 [Example 458]
17 | > 200 | Cc1ccc2cc(C(=O)NC[C@](O)(c3cc4c(c(-c5ccc(F)cc5)n3)OC[C@]4(C)C(N)=O)C(F)(F)F)cc(NC(=O)NC3CC3)c2n1 [Example 628]
18 | < 200 | C[C@]1(C(N)=O)COc2c1cc([C@@](O)(CNC(=O)c1cc(Oc3ncco3)c3ncccc3c1)C(F)(F)F)nc2-c1ccc(F)cc1 [Example 389]
19 | < 200 | C[C@]1(C(N)=O)COc2c1cc([C@@](O)(CNC(=O)c1ccc3nc(N)sc3c1)C(F)(F)F)nc2-c1ccc(Cl)cc1 [Example 448]
20 | > 200 | CC(C)CCNC(=O)[C@@]1(C)COc2c1cc([C@@](O)(CNC(=O)c1cc(OC3CC3)c3ncccc3c1)C(F)(F)F)nc2-c1ccc(F)cc1 [Example 472]
21 | < 200 | COc1cc(C(=O)NC[C@](O)(c2cc3c(c(-c4ccc(F)cc4)n2)OC[C@]3(C)C(=O)NC2(C)COC2)C(F)(F)F)cc2cccnc12 [Example 57]
22 | < 200 | COc1cc(C(=O)NC[C@](O)(c2cc3c(c(-c4ccc(F)cc4)n2)OC[C@]3(F)C(N)=O)C(F)(F)F)ccc1OC1CC1 [Example 666]
23 | < 200 | Cc1cnc2c(NC(=O)C3(C)COC3)cc(C(=O)NC[C@](O)(c3cc4c(c(-c5ccc(F)cc5)n3)OC[C@]4(C)C(N)=O)C(F)(F)F)cc2c1 [Example 620]
24 | < 200 | C[C@@H](O)COc1ccc(C(=O)NC[C@](C)(O)c2cc3c(c(-c4ccc(F)cc4)n2)OC[C@]3(C)C(N)=O)cc1OC1CC1 [Example 267]

Row | EC50 [nM] | SMILES
25 | < 200 | Cc1cnc(-c2cc(C(=O)NC[C@](O)(c3cc4c(c(-c5ccc(F)cc5)n3)OC[C@]4(C)C(N)=O)C(F)(F)F)ccc2OC2CC2)cn1 [Example 115]
26 | > 200 | C[C@]1(C(N)=O)COc2c1cc([C@@](O)(CNC(=O)c1cc(O)c3nc(C(F)(F)F)ccc3c1)C(F)(F)F)nc2-c1ccc(F)cc1 [Example 227]
27 | > 200 | COc1nccc2cc(C(=O)NC[C@](O)(c3cc4c(c(-c5ccc(F)cc5)n3)OC[C@]4(C)C(N)=O)C(F)(F)F)ccc12 [Example 362]
28 | < 200 | C[C@]1(C(N)=O)COc2c1cc([C@@](O)(CNC(=O)c1cc(Nc3cccnn3)c3ncccc3c1)C(F)(F)F)nc2-c1ccc(F)cc1 [Example 347]
29 | > 200 | COc1cc(C(=O)NC[C@](O)(c2cc3c(c(C#Cc4cc(F)c(F)c(F)c4)n2)OC[C@]3(C)C(N)=O)C(F)(F)F)ccc1OC1CC1 [Example 511]
30 | < 200 | C[C@]1(C(N)=O)COc2c1cc([C@@](O)(CNC(=O)c1cc(F)c3ncccc3c1)C(F)(F)F)nc2-c1ccc(F)cc1 [Example 63]
31 | > 200 | CNC(=O)NCCCNC(=O)[C@@]1(C)COc2c1cc([C@@](O)(CNC(=O)c1cc(OC3CC3)c3ncccc3c1)C(F)(F)F)nc2-c1ccc(F)cc1 [Example 462]
32 | > 200 | C[C@]1(C(N)=O)COc2c1cc([C@@](O)(CNC(=O)c1cc(OCC(=O)NC3CC3)c3ncccc3c1)C(F)(F)F)nc2-c1ccc(F)cc1 [Example 376]
33 | > 200 | COc1cc(C(=O)NC[C@](O)(c2cc3c(c(-c4ccc(F)cc4)n2)OC[C@]3(C)C(N)=O)C(F)(F)F)cc2c(C)ccnc12 [Example 251]
34 | > 200 | Cc1cccc(-c2ccc(C(=O)NC[C@](O)(c3cc4c(c(-c5ccc(F)cc5)n3)OC[C@]4(C)C(N)=O)C(F)(F)F)cc2OC2CC2)n1 [Example 158]
35 | < 200 | COc1cc(C(=O)NC[C@](O)(c2cc3c(c(-c4ccc(Cl)c(F)c4)n2)OC[C@]3(C)C(N)=O)C(F)(F)F)cc2cc(C)cnc12 [Example 260]
36 | < 200 | COc1cc(C(=O)NC[C@](O)(c2cc3c(c(-c4ccc(F)cc4)n2)OC[C@]3(C)C(N)=O)C(F)(F)F)ccc1-c1nncs1 [Example 201]
37 | > 200 | C[C@]1(C(N)=O)COc2c1cc([C@@](O)(CNC(=O)c1ccc3[nH]c(=O)[nH]c3c1)C(F)(F)F)nc2-c1ccc(F)cc1 [Example 321]
38 | < 200 | C[C@]1(C(N)=O)COc2c1cc([C@@](O)(CNC(=O)c1ccc(-c3cncs3)c(OC3CC3)c1)C(F)(F)F)nc2-c1ccc(F)cc1 [Example 175]
39 | < 200 | COc1cc(C(=O)NCC(O)(c2cc3c(c(-c4ccc(F)cc4)n2)OC[C@]3(C)CNCC2CC2)C(F)(F)F)cc2cccnc12 (stereo partly drawn) [Example 25]
40 | < 200 | CCc1ccc2cc(C(=O)NC[C@](O)(c3cc4c(c(-c5ccc(F)cc5)n3)OC[C@]4(C)C(N)=O)C(F)(F)F)cc(OC)c2n1 [Example 273]
41 | > 200 | C[C@]1(C(N)=O)COc2c1cc([C@@](O)(CNC(=O)c1cc(NS(C)(=O)=O)c3ncccc3c1)C(F)(F)F)nc2-c1ccc(F)cc1 [Example 394]
42 | < 200 | COc1cc(C(=O)NC[C@](O)(c2cc3c(c(-c4ccc(F)cc4)n2)OC[C@]3(C)C(=O)NCC2CC2)C(F)(F)F)cc2cccnc12 [Example 50]
43 | < 200 | CNC(=O)COc1cc(C(=O)NC[C@](O)(c2cc3c(c(-c4ccc(F)cc4)n2)OC[C@]3(C)C(N)=O)C(F)(F)F)cc2cccnc12 [Example 372]
44 | < 200 | CC(C)(O)CNC(=O)[C@@]1(C)COc2c1cc([C@@](O)(CNC(=O)c1cc(OCC(N)=O)c3ncccc3c1)C(F)(F)F)nc2-c1ccc(F)cc1 [Example 506]
45 | < 200 | COc1cc(C(=O)NC[C@](O)(C2=CC3C(OC[C@]3(C)C(N)=O)C(c3ccc(F)cc3)=N2)C(F)(F)F)ccc1Cl (stereo partly drawn) [Example 329]
46 | > 200 | C[C@]1(C(N)=O)COc2c1cc([C@@](O)(CNC(=O)c1ccc3c(c1)NC(=O)CO3)C(F)(F)F)nc2-c1ccc(F)cc1 [Example 313]
47 | < 200 | C[C@]1(C(N)=O)COc2c1cc([C@@](O)(CNC(=O)c1ccc(OC3CC3)c(-c3ccccc3)c1)C(F)(F)F)nc2-c1ccc(F)cc1 [Example 77]

Row | SMILES | EC50 [nM]
48 | C[C@]1(C(N)=O)COc2c1cc([C@@](O)(CNC(=O)c1cc(O)c3ncccc3c1)C(F)(F)F)nc2-c1ccc(F)cc1 [Example 229] | > 200
